Laboratory results published in ChEMBL document CHEMBL1149687, “Development of oligoarginine-drug conjugates linked to new peptidic self-cleavable spacers toward effective intestinal absorption” (Bioorg Med Chem Lett, 2007).

Each compound was assayed on Caco-2 (assay: Apparent permeability across Caco-2 cells). Conditions: Homo sapiens.
Format: functional, cell-based

Question: `N=C(N)NCCC[C@@H](NC(=O)[C@@H](CCCNC(=N)N)NC(=O)[C@@H](CCCNC(=N)N)NC(=O)[C@@H](CCCNC(=N)N)NC(=O)[C@@H](CCCNC(=N)N)NC(=O)[C@@H](CCCNC(=N)N)NC(=O)[C@@H](CCCNC(=N)N)NC(=O)CCCNC(=O)[C@@H](CN)NC(=O)CCC(=O)OCCNC(=S)Nc1ccc(-c2c3ccc(=O)cc-3oc3cc(O)ccc23)c(C(=O)O)c1)C(N)=O` was tested. Which Papp did it give?
Answer: The Papp was 0.75 ×10⁻⁶ cm/s.

Question: With `O=C(O)c1cc(NC(=S)NCCO)ccc1-c1c2ccc(=O)cc-2oc2cc(O)ccc12` as the compound, how does the Papp read?
Answer: The Papp was 0.26 ×10⁻⁶ cm/s.

Question: `C[C@@H](NC(=O)CCC(=O)OCCNC(=S)Nc1ccc(-c2c3ccc(=O)cc-3oc3cc(O)ccc23)c(C(=O)O)c1)C(=O)NCCCC(=O)N[C@H](CCCNC(=N)N)C(=O)N[C@H](CCCNC(=N)N)C(=O)N[C@H](CCCNC(=N)N)C(=O)N[C@H](CCCNC(=N)N)C(=O)N[C@H](CCCNC(=N)N)C(=O)N[C@H](CCCNC(=N)N)C(=O)N[C@H](CCCNC(=N)N)C(N)=O` was tested. Which Papp did it give?
Answer: Its Papp is 0.41 ×10⁻⁶ cm/s.

Question: Which Papp does the source give for `CC(N)[C@@H](NC(=O)CCC(=O)OCCNC(=S)Nc1ccc(-c2c3ccc(=O)cc-3oc3cc(O)ccc23)c(C(=O)O)c1)C(=O)NCCCC(=O)N[C@H](CCCNC(=N)N)C(=O)N[C@H](CCCNC(=N)N)C(=O)N[C@H](CCCNC(=N)N)C(=O)N[C@H](CCCNC(=N)N)C(=O)N[C@H](CCCNC(=N)N)C(=O)N[C@H](CCCNC(=N)N)C(=O)N[C@H](CCCNC(=N)N)C(N)=O` (some centres undefined) here?
Answer: Its Papp is 0.48 ×10⁻⁶ cm/s.
